Species on record: Rattus norvegicus
Assay: Open TG-GATES - Regimen: Single
Format: toxicity, organism-based, Sprague-Dawley
Parameters: regimen Single, gender Male, age 6 weeks
Conditions: in vivo, po, route gavage; for APTT / Bas / Eos / Fbg / Hb / Ht / Lym / MCH / MCHC / MCV / Mono / Neu / PT / Plat / Ret / WBC: tissue Blood; for KIDNEY_L / KIDNEY_R / KIDNEY_TOTAL: tissue Kidney; for LIVER: tissue Liver; for ALP / ALT / AST / BUN / CRE / DBIL / GLC / IP / K / LDH / Na / PL / RALB / TBIL / TC / TG / TP / gamma-GTP / Ca: tissue Plasma
[1] = 0 mg/kg, 3 h, dose level Control
[2] = 0 mg/kg, 6 h, dose level Control
[3] = 0 mg/kg, 9 h, dose level Control
[4] = 0 mg/kg, 24 h, dose level Control

## CN(C)CCCN1c2ccccc2CCc2ccc(Cl)cc21 [CLOMIPRAMINE]
[1]
  TERMINAL_BW: 213.4 g
  APTT: 23.8 s
  Bas: 0.4%
  Eos: 0.8%
  Fbg: 259.6 mg/dL
  Hb: 13.8 g/dL
  Ht: 42.8%
  Lym: 77.4%
  MCH: 21.4 pg
  MCHC: 32.3%
  MCV: 66.4 fL
  Mono: 3.6%
  Neu: 16.8%
  PT: 13.6 s
  Plat: 115.6 x10_4/uL
  Ret: 8.2%
  WBC: 86.3 x10_2/uL
  KIDNEY_L: 1 g
  KIDNEY_R: 1 g
  KIDNEY_TOTAL: 1.9 g
  LIVER: 9.4 g
  ALP: 1695.8 IU/L
  ALT: 43.8 IU/L
  AST: 82.8 IU/L
  BUN: 9.6 mg/dL
  CRE: 0.2 mg/dL
  DBIL: 0.006 mg/dL
  GLC: 182.4 mg/dL
  IP: 9.7 mg/dL
  K: 4.2 meq/L
  LDH: 98.4 IU/L
  Na: 140.2 meq/L
  PL: 140 mg/dL
  RALB: 2.5 g/dL
  TBIL: 0.074 mg/dL
  TC: 75.4 mg/dL
  TG: 54.2 mg/dL
  TP: 5.2 g/dL
  gamma-GTP: 1 IU/L
[2]
  TERMINAL_BW: 213.9 g
  APTT: 16.6 s
  Bas: 0%
  Eos: 0.8%
  Fbg: 254.2 mg/dL
  Hb: 13.7 g/dL
  Ht: 42.3%
  Lym: 76.2%
  MCH: 21 pg
  MCHC: 32.3%
  MCV: 65.1 fL
  Mono: 2.8%
  Neu: 19.2%
  PT: 13.9 s
  Plat: 125.3 x10_4/uL
  Ret: 8.3%
  WBC: 83.4 x10_2/uL
  KIDNEY_L: 1 g
  KIDNEY_R: 1 g
  KIDNEY_TOTAL: 2 g
  LIVER: 9.4 g
  ALP: 1630.4 IU/L
  ALT: 38.6 IU/L
  AST: 76.6 IU/L
  BUN: 9.2 mg/dL
  CRE: 0.2 mg/dL
  Ca: 10.8 mg/dL
  DBIL: 0.006 mg/dL
  GLC: 178.2 mg/dL
  IP: 9.8 mg/dL
  K: 4.2 meq/L
  LDH: 90 IU/L
  Na: 140.4 meq/L
  PL: 142.6 mg/dL
  RALB: 2.6 g/dL
  TBIL: 0.07 mg/dL
  TC: 71.8 mg/dL
  TG: 77.8 mg/dL
  TP: 5.4 g/dL
  gamma-GTP: 1 IU/L
[3]
  TERMINAL_BW: 213.6 g
  APTT: 16.7 s
  Bas: 0.2%
  Eos: 1%
  Fbg: 245 mg/dL
  Hb: 13.4 g/dL
  Ht: 41%
  Lym: 78.2%
  MCH: 21 pg
  MCHC: 32.6%
  MCV: 64.4 fL
  Mono: 1.6%
  Neu: 18%
  PT: 14 s
  Plat: 133.7 x10_4/uL
  Ret: 8.1%
  WBC: 86.1 x10_2/uL
  KIDNEY_L: 1 g
  KIDNEY_R: 1 g
  KIDNEY_TOTAL: 2 g
  LIVER: 8.5 g
  ALP: 1606 IU/L
  ALT: 39.8 IU/L
  AST: 79.8 IU/L
  BUN: 9.8 mg/dL
  CRE: 0.2 mg/dL
  DBIL: 0.008 mg/dL
  GLC: 181 mg/dL
  IP: 10.1 mg/dL
  K: 4 meq/L
  LDH: 109.8 IU/L
  Na: 140.6 meq/L
  PL: 139.2 mg/dL
  RALB: 2.4 g/dL
  TBIL: 0.07 mg/dL
  TC: 75.4 mg/dL
  TG: 51.2 mg/dL
  TP: 5.1 g/dL
  gamma-GTP: 1 IU/L
[4]
  TERMINAL_BW: 229.8 g
  APTT: 18 s
  Bas: 0%
  Eos: 0.8%
  Fbg: 257.8 mg/dL
  Hb: 13.5 g/dL
  Ht: 41.6%
  Lym: 82.6%
  MCH: 20.5 pg
  MCHC: 32.4%
  MCV: 63.4 fL
  Mono: 2.8%
  Neu: 12.6%
  PT: 13.4 s
  Plat: 129 x10_4/uL
  Ret: 7.4%
  WBC: 82.9 x10_2/uL
  KIDNEY_L: 1 g
  KIDNEY_R: 1 g
  KIDNEY_TOTAL: 2.1 g
  LIVER: 11 g
  ALP: 1743.2 IU/L
  ALT: 45.8 IU/L
  AST: 73.4 IU/L
  BUN: 14 mg/dL
  CRE: 0.2 mg/dL
  Ca: 10.9 mg/dL
  DBIL: 0.01 mg/dL
  GLC: 176.4 mg/dL
  IP: 8.2 mg/dL
  K: 4.1 meq/L
  LDH: 80.2 IU/L
  Na: 140.8 meq/L
  PL: 161.6 mg/dL
  RALB: 2.6 g/dL
  TBIL: 0.062 mg/dL
  TC: 83.2 mg/dL
  TP: 5.5 g/dL
  gamma-GTP: 1 IU/L
10 mg/kg, 3 h, dose level Low
  TERMINAL_BW: 216.3 g
